According to article PMC10649008 (Antimicrobial Agents and Chemotherapy, 2023):
Values joined by “and” are separate entries in the source; they are usually repeats but may differ in a detail not shown here. Identical values can stand only once. Like-named read-outs stand apart in the source and are kept apart here.

Assays:
[1] = Source text: All study procedures were reviewed and approved by the respective Institutional Review Board for each study site. Prior to any study procedures, written informed consent from a parent or legal guardian and assent (if appropriate for older patients) were obtained. The patient population consisted of subjects aged >12 months to <17 years of age who required systemic antibiotic therapy for the treatment or prevention of known or suspected bacterial infection. Subjects were enrolled into four cohorts stratified by age: adolescents (12–17 years of age), older children (6–11 years of age), younger children (2–5 years of age), and infants (1–2 years of age). […] The study consisted of a screening period followed by a treatment period and a safety follow-up period through Day 8 ± 1 day.
(§1) Safety was monitored during both the screening and treatment periods by physical exams, vital signs, urinalysis, and clinical laboratory measures (complete blood count with differential, serum chemistry, creatinine, and liver enzymes); AEs and concomitant medications were recorded from screening through follow-up on Day 8 (± 1 day). Medical and medication history and demographics were collected at screening. Vital signs (heart rate, blood pressure, respiratory rate, and body temperature) were collected at screening, Days 1 and 2 of the study.

[2] = post-dose, single 10 mg/kg IV
Method: as §1

[3] = Healthy adults, N = 42, single 10 mg/kg IV dose, mean ± SD, cited from earlier work
[4] = five courses in three adolescent cystic fibrosis patients; 8.7–10 mg/kg daily for up to 3 weeks; cited from earlier work
[5] = all cohorts, three of 22 subjects, single 10 mg/kg IV
[6] = all cohorts, two of 22 subjects, single 10 mg/kg IV

**Q.** With `CCCCCCCCCCNCCN[C@@]1(C)C[C@H](O[C@H]2[C@H](Oc3c4cc5cc3Oc3ccc(cc3Cl)[C@@H](O)[C@@H](NC(=O)[C@@H](CC(C)C)NC)C(=O)N[C@@H](CC(N)=O)C(=O)N[C@H]5C(=O)N[C@H]3C(=O)N[C@H](C(=O)N[C@H](C(=O)O)c5cc(O)c(CNCP(=O)(O)O)c(O)c5-c5cc3ccc5O)[C@H](O)c3ccc(c(Cl)c3)O4)O[C@H](CO)[C@@H](O)[C@@H]2O)O[C@@H](C)[C@H]1O` [telavancin] as the compound, how does the “Number of adverse events moderate in severity” value ([1]; Cohort 2 (6–11 years), of 11 AEs, single 10 mg/kg IV) read?
**A.** two

**Q.** And the “Adverse events considered probably related to telavancin administration” value ([1]; Cohort 2 (6–11 years), six of the 11 events)?
**A.** 55%

**Q.** What about the Adverse events ([1]; Cohort 3 (2–5 years), single subject, single 10 mg/kg IV) of the same compound?
**A.** No AEs were reported

**Q.** And the “Subjects with adverse events” value ([1]; all cohorts, 10 of the 22 subjects, single 10 mg/kg IV, through Day 8 ± 1)?
**A.** 45%

**Q.** And the “Total number of adverse events (AEs)” value ([1]; all cohorts, 22 subjects 2–17 years, single 10 mg/kg IV, through Day 8 ± 1)?
**A.** 27

**Q.** What about the Serious adverse events ([1]; all cohorts, 22 subjects, single 10 mg/kg IV) of the same compound?
**A.** no serious AEs

**Q.** What about the Subjects with nausea ([1]; all cohorts, four of 22 subjects, single 10 mg/kg IV) of the same compound?
**A.** 18%

**Q.** What about the “Subjects with foamy urine” value [1, 5] of the same compound?
**A.** 14%

**Q.** What about the “Subjects with taste disturbance/metallic taste” value [1, 5] of the same compound?
**A.** 14%

**Q.** And the Subjects with dizziness [1, 6]?
**A.** 9%

**Q.** And the Subjects with headache [1, 6]?
**A.** 9%

**Q.** And the “Tolerability of a single dose” value ([1]; all pediatric age cohorts, single 10 mg/kg IV)?
**A.** well-tolerated

**Q.** What about the “QT interval (12-lead ECG)” value ([1]; one subject in Cohort 2 (6–11 years), ECG 1.5–2.5 h after start of infusion, moderate, resolved prior to Day 8) of the same compound?
**A.** prolonged QT interval

**Q.** And the Infusion reactions ([1]; single 10 mg/kg infusion administered over an hour, all cohorts)?
**A.** no infusion reactions

**Q.** What about the “Clinically significant abnormalities following telavancin administration” value ([1]; worsened ALT and LDH in one Cohort 1 subject, prolonged QT in one Cohort 2 subject, moderate, resolved prior to Day 8) of the same compound?
**A.** three

**Q.** What about the Creatinine ([2]; Cohort 1 (12 to 17 years), 9 subjects, pre-dose 0.6 ± 0.2 (N = 14)) of the same compound?
**A.** 1.0 ± 1.1 mg/dL

**Q.** What about the Total bilirubin ([2]; Cohort 1 (12 to 17 years), 9 subjects, pre-dose 0.6 ± 0.3 (N = 14)) of the same compound?
**A.** 0.3 ± 0.2 mg/dL

**Q.** And the Leukocytes ([2]; Cohort 1 (12 to 17 years), 9 subjects, pre-dose 10.3 ± 3.1 (N = 14))?
**A.** 7.3 ± 2.0 x10^9/L

**Q.** And the Hemoglobin ([2]; Cohort 1 (12 to 17 years), 9 subjects, pre-dose 12.2 ± 1.7 (N = 14))?
**A.** 12.1 ± 1.4 g/dL

**Q.** And the Alanine aminotransferase ([2]; Cohort 1 (12 to 17 years), 9 subjects, pre-dose 25.9 ± 15.1 (N = 14))?
**A.** 37.4 ± 24.2 IU/L

**Q.** And the Aspartate aminotransferase ([2]; Cohort 1 (12 to 17 years), 9 subjects, pre-dose 50.9 ± 56.2 (N = 14))?
**A.** 72.8 ± 72.0 IU/L

**Q.** And the Platelets ([2]; Cohort 1 (12 to 17 years), 9 subjects, pre-dose 226 ± 69.1 (N = 14))?
**A.** 236 ± 85.9 x10^9/L

**Q.** What about the Lactate dehydrogenase ([2]; Cohort 1 (12 to 17 years), 9 subjects, pre-dose 361 ± 247 (N = 14)) of the same compound?
**A.** 439 ± 270 IU/L

**Q.** What about the Creatinine ([2]; Cohort 2 (6 to 11 years), 6 subjects, pre-dose 0.4± 0.1 (N = 7)) of the same compound?
**A.** 0.4 ± 0.1 mg/dL

**Q.** And the Total bilirubin ([2]; Cohort 2 (6 to 11 years), 6 subjects, pre-dose 0.6 ± 0.5 (N = 7))?
**A.** 0.5 ± 0.3 mg/dL

**Q.** And the Leukocytes ([2]; Cohort 2 (6 to 11 years), 6 subjects, pre-dose 8.3 ± 3.0 (N = 7))?
**A.** 6.3 ± 1.3 x10^9/L

**Q.** What about the Hemoglobin ([2]; Cohort 2 (6 to 11 years), 6 subjects, pre-dose 11.7 ± 1.4 (N = 7)) of the same compound?
**A.** 11.9 ± 1.4 g/dL

**Q.** And the Alanine aminotransferase ([2]; Cohort 2 (6 to 11 years), 6 subjects, pre-dose 30.9 ± 12.2 (N = 7))?
**A.** 36.8 ± 19.4 IU/L

**Q.** And the Aspartate aminotransferase ([2]; Cohort 2 (6 to 11 years), 6 subjects, pre-dose 41.6 ± 26.0 (N = 7))?
**A.** 46.7 ± 40.7 IU/L

**Q.** And the Platelets ([2]; Cohort 2 (6 to 11 years), 6 subjects, pre-dose 267 ± 73.6 (N = 7))?
**A.** 289 ± 105.5 x10^9/L

**Q.** And the Creatinine ([2]; Cohort 3 (2 to 5 years), N = 1, pre-dose 0.2 ± 0.0)?
**A.** 0.2 ± 0.0 mg/dL

**Q.** What about the Total bilirubin ([2]; Cohort 3 (2 to 5 years), N = 1, pre-dose 0.4 ± 0.0) of the same compound?
**A.** 0.4 ± 0.0 mg/dL

**Q.** And the Leukocytes ([2]; Cohort 3 (2 to 5 years), N = 1, pre-dose 4.6 ± 0.0)?
**A.** 7.5 ± 0.0 x10^9/L

**Q.** And the Hemoglobin ([2]; Cohort 3 (2 to 5 years), N = 1, pre-dose 10.0 ± 0.0)?
**A.** 10.3 ± 0.0 g/dL

**Q.** What about the Aspartate aminotransferase ([2]; Cohort 3 (2 to 5 years), N = 1, pre-dose 41.0 ± 0.0) of the same compound?
**A.** 37.0 ± 0.0 IU/L

**Q.** And the Alanine aminotransferase ([2]; Cohort 3 (2 to 5 years), N = 1, pre-dose 72.0 ± 0.0)?
**A.** 62.0 ± 0.0 IU/L

**Q.** And the Platelets ([2]; Cohort 3 (2 to 5 years), N = 1, pre-dose 148 ± 0.0)?
**A.** 195 ± 0.0 x10^9/L

**Q.** What about the Lactate dehydrogenase ([2]; Cohort 3 (2 to 5 years), N = 1, pre-dose 477 ± 0.0) of the same compound?
**A.** 480 ± 0.0 IU/L

**Q.** What about the “AUC0-inf (area under the curve extrapolated to infinity)” value ([3]; 10 mg/kg) of the same compound?
**A.** 747 µg·h/mL and 747 ± 129 µg·h/mL

**Q.** What about the “T 1/2 (terminal elimination half-life)” value ([3]; 10 mg/kg) of the same compound?
**A.** 8.0 h and 8.0 ± 1.5 h

**Q.** And the “C max (maximum plasma concentration)” value [3]?
**A.** 93.6 ± 14.2 µg/mL

**Q.** And the “CL (clearance)” value [3]?
**A.** 0.232 ± 0.0483 mL/min/kg

**Q.** What about the “Serum creatinine across courses of treatment” value [4] of the same compound?
**A.** remained stable
